In patent US9045434B1, “Compositions and methods of treatment for myocilin glaucoma by selectively inhibiting GRP94” (University of South Florida, priority 2012, dated 2015):

Columns and labels:
IGF-II secretion = IGF-II secretion by serum-starved C2C12 cells, ELISA; format: cell-based; conditions: 10 μM, 48 h
Description: IGF-II is a second well-defined Grp94-dependent client protein and active Grp94 is required for the secretion of IGF-II (Ostrovsky et al., 2009). […] (Wanderling, S. et al. GRP94 Is Essential for Mesoderm Induction and Muscle Development Because It Regulates Insulin-like Growth Factor Secretion. Mol. Biol. Cell 18, 3764-3775, (2007); Ostrovsky, O., Eletto, D., Makarewich, C., Barton, E. R. & Argon, Y. Glucose regulated protein 94 is required for muscle differentiation through its control of the autocrine production of insulin-like growth factors. BBA—Mol. Cell Res. 1803, 333-341, (2010); Ostrovsky, O., Ahmed, N. T. & Argon, Y. The Chaperone Activity of GRP94 Toward Insulin-like Growth Factor II Is Necessary for the Stress Response to Serum Deprivation. Mol. Biol. Cell 20, 1855-1864, (2009)). Accordingly, serum-starved C2C12 cells were treated with increasing concentrations of compound 2 and the secretion of IGF-II was measured by ELISA (FIG. 5A).
For IGF-II ELISA, plates were coated with anti-IGF-II (MAb 792, R&D Systems) and incubated with the test cell media. The bound IGF-II was detected with a biotinylated anti-IGF-II antibody (BAF792, R&D Systems) and developed with streptavidin-HRP (R&D Systems) according to the manufacturer's recommended procedure. […] Data were acquired in duplicate on a microtiter-plate reader (Dynatech Laboratories, Chantilly, Va.) at 450 nm.

[1] = system: Hsp90α/β client proteins Raf and Akt; assay: Western blot of Hsp90α/β client proteins in HEK293 cell lysates; format: cell-based, human
Description: (§1) GRP94 and BiP were detected by the anti-KDEL antibody. *, an unknown KDEL-containing band. […] Cell survival was measured by XTT assay (n=4).
In contrast, loss of functional Hsp90α or Hsp90β results in cell death. […] To support these findings, western blot analyses of Hsp90α/β client proteins were performed from HEK293 cell lysates. Prototypical pan-Hsp90 inhibitors induce proteasome-mediated degradation of Hsp90α/β client substrates.
Cells were harvested in cold PBS and lysed in mammalian protein extraction reagent (MPER, Pierce) and protease inhibitors (Roche) on ice for 1 h. Lysates were clarified at 14,000 g for 10 min at 4° C. Protein concentrations were determined with the Pierce BCA assay kit per the manufacturer's instructions. Equal amounts of protein (10 μg) were electrophoresed under reducing conditions, transferred to a PVDF membrane, and immunoblotted with the corresponding specific antibodies. Membranes were incubated with an appropriate horseradish peroxidase-labeled secondary anti-body, developed with chemiluminescent substrate, and visualized.

Drosophila larvae (Gp93) = assay: Drosophila larval growth on supplemented fly food; format: in vivo; conditions: for effect on Drosophila larval growth: dietary, 250 μg/ml to 1 mg/ml in fly food, first instar w1118 larvae
Description: (Maynard, J. C. et al. Gp93, the Drosophila GRP94 ortholog, is required for gut epithelial homeostasis and nutrient assimilation-coupled growth control. Dev. Biol. 339, 295-306, (2010)). In the Drosophila model, maternal Gp93 is sufficient to support embryogenesis in Gp93 homozygous null embryos. In the absence of zygotic expression of Gp93, however, larvae display a pronounced growth defect, commensurate with disrupted gut epithelial morphology, decreased gut nutrient uptake, and marked aberrations in copper cell structure and function. As a consequence, loss of Gp93 expression is larval lethal in Drosophila.
To determine the effects of compound 2 on Drosophila larval growth, first instar wild type (w1118) larvae were placed onto fly food supplemented with either no supplement (A), 0.1% (B), 0.3% (C), or 0.5% (D) DMSO (vehicle controls) or fly food supplemented with 250 μg/ml (E), 500 μg/ml (F), 750 μg/ml (G) or 1 mg/ml (H) compound 2. […] In parallel experiments, larval gut tissue was obtained from each of the feeding conditions and gut epithelial morphology evaluated by fluorescence microscopy. […] Pharmacokinetic studies of compound absorption and metabolism may provide addition insights into this partial phenotypic behavior.

C2C12 cells = assay: C2C12 cell viability, XTT assay; conditions: C2C12 cells treated as in the IGF-II assay
Description: The viability of cells treated as in A was measured at each of the indicated concentrations by the XTT assay.
C2C12 cells (ATCC, Rockville, Md.) were induced to differentiate either by complete withdrawal of serum or by shifting to medium supplemented with 2% house serum. […] Cell growth was measured with the XTT formazan colorimetric assay (Roche), cells were grown in 3% serum, to limit the background of the assay.

BiP expression = assay: Induction of BiP expression, immunoblot
Description: Grp94, BiP and PDIA6 were detected with the monoclonal anti-KDEL antibody, AKT by rabbit anti-serum. 14-3-3 served as loading control. Numbers below BiP, Grp94, and AKT bands are the relative expression levels, determined by densitometry.
The inventors therefore assessed the ability of 2 to cause BiP up-regulation, in comparison to pan-Hsp90 inhibitors.

I477N mutant myocilin = I477N mutant myocilin levels in HEK iI477N cells, Western blot; format: cell-based, human; conditions: for effect on I477N mutant myocilin levels: 24 hours, indicated concentrations
Description: (§2) FIGS. 16A-E are a series of images depicting inhibition of the Hsp90 chaperone complex reduces the levels of the disease-causing I477N myocilin. Western blot of lysates from HEK iI477N cells treated with the indicated concentrations of the pan Hsp90/Grp94 inhibitors 17-AAG (A) and celastrol (B) for 24 hours. (C) Western blot of lysates from HEK cells conditionally over-expressing I477N myocilin that were treated with 7.5 μM of 17-AAG or vehicle (Veh) and harvested at indicated time points. (D) Dot blot of the cell culture media of HEK iWT cells that were treated with the indicated concentration of 17AAG. (E) Western blot of lysates from HEK iI477N cells and treated with indicated concentrations of a Grp94 selective inhibitor for 24 hours.
A well-established Human Embryonic Kidney (HEK) cell model that conditionally overexpresses wildtype (iWT) or I477N mutant myocilin (iI477N) was used in these studies. (Joe M K & Tomarev S I (2010) Expression of myocilin mutants sensitizes cells to oxidative stress-induced apoptosis: implication for glaucoma pathogenesis. Am J Pathol 176(6):2880-2890) In this inducible and stable cell line, wildtype or I477N myocilin harbors a Flag-tag to ease downstream detection. The inventors confirmed wildtype myocilin secretion and I477N intracellular retention using dot blot analysis of the cell culture media or Western blot of the lysates, respectively (FIG. 10A). The inventors further corroborated ER retention of I477N myocilin by immunofluorescence co-localization (FIG. 10B).
(§3) Small-molecule inhibition of Hsp90, including Grp94, is in clinical development for a number of diseases, and since Grp94 sequesters mutant myocilin from ERAD and Grp94 knockdown enables efficient clearance, the effects of Hsp90 inhibitors were tested. […] 17AAG facilitated reductions in I477N myocilin as soon as 3 hours after treatment (FIG. 16C). As expected, levels of wildtype myocilin were unaffected by 17-AAG, even at a very high dose (FIG. 16D). […] (Rousaki A, et al. (2011) Allosteric Drugs: The Interaction of Antitumor Compound MKT-077 with Human Hsp70 Chaperones. J Mol Biol 411(3):614-632)
Cells were plated and grown as previously described. […] Inducible cells were treated with […] of Tetracycline to induce myocilin expression, 24 hours prior to transfection. SiRNA transfections were performed with Silentfect reagent (BioRad). DNA Transfections were performed with Lipofectamine 2000 (Invitrogen) for 48 hours. The cells were harvested in Mammalian Protein Extraction Reagent (M-PER) buffer (Pierce) containing 1× protease inhibitor mixture (Calbiochem), 100 mM phenylmethylsulfonyl fluoride, and 1× phosphatase inhibitor II and III cocktails (Sigma).
Cells were treated with Grp94 inhibitor and Hsp70/Grp78 inhibitor for 24 hours. Proteasomal inhibition was achieved by treating cells with 0.6 uM and 0.8 uM of epoxomicin.
Western blot and coimmunoprecipitation analyses were performed as previously described. (Abisambra J F, et al. (2012) DnaJA1 Antagonizes Constitutive Hsp70-Mediated Stabilization of Tau. J Mol Biol) Protein samples were prepared using 2× Laemmli sample buffer (Bio-Rad). Samples were boiled for 5-10 min and then loaded onto a 10 well, 10% Tris-glycine gels (Invitrogen) or 18-well, 10% criterion gels (Bio-Rad). The gels were transferred onto PVDF membranes (Millipore) and then blocked for 1 hr at room temperature with 7% milk. […]

wildtype myocilin = assay: Wildtype myocilin in HEK iWT cells, dot blot of media; format: cell-based, human; conditions: even at a very high dose
Description: as §2
as §3, with “411(3):614-632) […]” for “411(3):614-632)”

HeLa cells = assay: HeLa cell survival, XTT assay (GRP94-sufficient or -deficient cells); format: cell-based; conditions: Homo sapiens, 48 hrs, regardless of the presence of GRP94, read-out: IC50 for HeLa cell viability
Description: as §1
Similar results were obtained with other cell lines (e.g. C2C12 in FIG. 6).

[2] = system: full-length Grp94 versus yHsp82; conditions: cited from earlier work

## COC(=O)c1c(O)cc(O)c(Cl)c1CCc1nccn1Cc1ccccc1 [Compound 2]
IGF-II secretion
  reduction of IGF-II secretion: Approximately 60%
[1]; HEK293 cells, 24 h
  concentration up to which no degradation of Raf or Akt (cytoplasmic client proteins) is induced: 100 µM
[1]; compound 2 at 100 μM, GDA positive control 500 nM, HEK293
  induction of HSP70: induction of HSP70
Drosophila larvae (Gp93)
  effect on Drosophila larval growth: dramatic growth phenotype
Drosophila larvae (Gp93); listed as compound 2
  effect on Drosophila larval growth: clearly stunted the growth of drosophila larvae in a dose-dependent manner
Drosophila larvae (Gp93); same feeding conditions, data not shown
  effects on copper cell structure (gut epithelial morphology): No grossly discernible effects
C2C12 cells
  effect on cell viability: little effect on cell viability
BiP expression
  concentration above which BiP expression is induced: above 200 μM
BiP expression; 0-75 μM
  up-regulation of BiP: did not lead to up-regulation of BiP
BiP expression; above 200 μM
  effect on Akt at BiP-inducing concentrations: destabilized Akt

## C=CCNC1=C2C[C@@H](C)C[C@H](OC)[C@H](O)[C@@H](C)/C=C(\C)[C@H](OC(N)=O)[C@@H](OC)/C=C\C=C(/C)C(=O)NC(=CC1=O)C2=O [Compound 17-AAG]
I477N mutant myocilin; 7.5 μM
  time after treatment at which reductions in I477N myocilin are seen: 3 h
I477N mutant myocilin
  effect on I477N mutant myocilin levels: dose-dependent reductions
Wildtype myocilin
  levels of wildtype myocilin: unaffected
BiP expression; 25 μM, data not shown
  up-regulation of BiP: did cause BiP up-regulation

## C[C@@H]1C[C@H]2O[C@@H]2/C=C\C=C\C(=O)Cc2c(Cl)c(O)cc(O)c2C(=O)O1 [RDC, radicicol]
HeLa cells
  IC50: 8 µM
BiP expression; 10 μM
  up-regulation of BiP: did cause BiP up-regulation

## CCn1c(=Cc2cccc[n+]2C)sc(=C2Sc3ccccc3N2C)c1=O.[Cl-] [YM1]
I477N mutant myocilin
  effect on I477N mutant myocilin levels: did not reduce I477N

## CC[C@H](C)[C@H](NC(=O)[C@H]([C@@H](C)CC)N(C)C(C)=O)C(=O)N[C@H](C(=O)N[C@@H](CC(C)C)C(=O)[C@@]1(C)CO1)[C@@H](C)O [epoxomicin]
I477N mutant myocilin; Grp94 knockdown
  effect on clearance of I477N myocilin: no effect on clearance
I477N mutant myocilin; control siRNA conditions
  effect on clearance of I477N myocilin: blocked the clearance of I477N myocilin

## radamide [RDA]
[2]
  binding affinity for full-length Grp94 relative to yHsp82: approximately 2 fold
